We go through eleven compounds from US20070082892A1, “Benzotriazepine derivatives and their use as gastrin and cholecystokinin receptor ligands” (James Black Foundation Limited, priority 2003, published 2007).

One experiment concerns the target T1, gastrin (CCK2) receptor (Rattus norvegicus, UniProt P30553).
T1 construct: The oesophagus of immature rats (33-50 g, ca. 21 days old) was ligated; from tissue; host or cells: isolated whole stomach of immature rats
T1 sequence (P30553 1-452): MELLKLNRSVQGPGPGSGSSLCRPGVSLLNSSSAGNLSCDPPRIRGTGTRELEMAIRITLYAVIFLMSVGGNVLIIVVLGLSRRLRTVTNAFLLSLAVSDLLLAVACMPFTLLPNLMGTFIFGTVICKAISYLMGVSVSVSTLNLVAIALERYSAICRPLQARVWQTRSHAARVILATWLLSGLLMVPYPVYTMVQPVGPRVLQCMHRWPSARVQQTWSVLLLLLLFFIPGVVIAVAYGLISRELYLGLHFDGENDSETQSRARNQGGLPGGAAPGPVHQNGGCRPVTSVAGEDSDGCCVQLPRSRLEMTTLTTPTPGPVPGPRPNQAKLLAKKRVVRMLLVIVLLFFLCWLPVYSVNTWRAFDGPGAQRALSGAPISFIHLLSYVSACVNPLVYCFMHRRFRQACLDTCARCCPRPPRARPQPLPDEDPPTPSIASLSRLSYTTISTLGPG
In words: gastrin (CCK2) antagonist activity in an immature rat stomach assay (pentagastrin-stimulated acid secretion). The conditions noted are these: isolated immature rat stomach, 60 min incubation, cumulative pentagastrin dose-response curves; read-out: CCK2 pKB ± sem (converted).

The next experiment addresses T2, human CCK1-receptor (Homo sapiens, UniProt P32238).
T2 construct: expressed in transfected cells; host or cells: CHO-K1
T2 sequence (P32238 1-428): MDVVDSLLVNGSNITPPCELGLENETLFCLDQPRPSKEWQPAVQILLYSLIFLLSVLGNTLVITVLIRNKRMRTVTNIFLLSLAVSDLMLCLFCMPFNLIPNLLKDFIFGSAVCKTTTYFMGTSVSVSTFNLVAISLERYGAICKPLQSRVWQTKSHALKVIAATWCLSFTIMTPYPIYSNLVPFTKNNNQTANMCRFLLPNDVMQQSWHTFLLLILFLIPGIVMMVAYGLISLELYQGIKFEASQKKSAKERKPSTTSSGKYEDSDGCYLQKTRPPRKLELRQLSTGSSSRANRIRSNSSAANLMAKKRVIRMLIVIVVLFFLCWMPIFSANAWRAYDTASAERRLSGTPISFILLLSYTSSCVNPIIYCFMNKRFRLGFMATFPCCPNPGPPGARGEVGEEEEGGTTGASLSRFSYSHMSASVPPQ
In words: CCK1 radioligand binding, displacement of [3H]-L-364,718 in CHO-K1 cells. The note with it: displacement of [3H]-L-364,718, CHO-K1 cells with cloned human CCK1 receptor; S.E.M's on pKi are ±≦0.1. On the procedure: The CCK1 activity of the ligands was assessed in a radioligand binding study, looking at the displacement of [^3H]-L-364,718 from sites in CHO-K1 cells into which the human CCK1-receptor sequence has been cloned. S.E.M's on pKi are ±≦0.1
On the technique in general: Loss of bound radioactivity is the signal in a displacement assay; it reports binding, not function.

Experimental for gastrin (CCK2) receptor: Certain compounds of the examples were tested for gastrin (CCK2) antagonist activity in an immature rat stomach assay.
The oesophagus of immature rats (33-50 g, ca. 21 days old) was ligated at the level of the cardiac sphincter and the duodenal sphincter was cannulated. The stomach was excised and flushed with ca. 1 ml of unbuffered physiological saline solution. The fundus was punctured and cannulated. A further 4-5 ml of unbuffered solution was flushed through the stomach to ensure the preparation was not leaking. […] The stomach was continuously perfused at a rate of 1 ml min^−1 with unbuffered solution gassed with 100% O2 with the perfusate passing over an internally referenced pH-electrode fixed 12 cm above the stomach.
After 120 min of stabilisation the drugs were added directly to the serosal solution in the organ bath and after a further 60 min cumulative pentagastrin dose-response curves were started.

In general, Ki refers to the dissociation constant of the complex between target and ligand, obtained from inhibition or displacement. As to `O=C(CN1C(=O)N(CC(=O)N2CCCC2)c2ccccc2N(c2ccccc2)C1=O)Nc1ccc(F)cc1` [Example 2, 2-[2,4-Dioxo-1-(2-oxo-2-pyrrolidin-1-yl-ethyl)-5-phenyl-1,2,4,5-tetrahydro-1,3,5-benzotriazepin-3-yl]-N-(4-fluoro-phenyl)-acetamide], on gastrin (CCK2) receptor, the Kb was 2240 nM. Also, the Ki at human CCK1-receptor is 7940 nM. `O=C(CN1C(=O)N(CC(=O)N2CCCC2)c2ccccc2N(c2ccccc2)C1=O)Nc1cccc(C(=O)O)c1` [Example 3, 3-{2-[2,4-Dioxo-1-(2-oxo-2-pyrrolidin-1-yl-ethyl)-5-phenyl-1,2,4,5-tetrahydro-1,3,5-benzotriazepin-3-yl]-acetylamino}-benzoic acid]: the Kb on gastrin (CCK2) receptor is 708 nM. On human CCK1-receptor, this compound gave a Ki above 10000 nM.

Consider `CC(C)(C)C(=O)CN1C(=O)N(CC(=O)Nc2cccc(CC(=O)O)c2)C(=O)N(C2CCCCCC2)c2ccccc21` [Example 8, (3-{2-[1-Cycloheptyl-5-(3,3-dimethyl-2-oxo-butyl)-2,4-dioxo-1,2,4,5-tetrahydro-1,3,5-benzotriazepin-3-yl]-acetylamino}-phenyl)-acetic acid], for which the Kb on gastrin (CCK2) receptor was 43.7 nM. At human CCK1-receptor, this compound gave an inhibition constant Ki of 3980 nM. For `CC(C)(C)C(=O)CN1C(=O)N(CC(=O)Nc2cccc(SCC(=O)OCc3ccccc3)c2)C(=O)N(C2CCCCCC2)c2ccccc21` [Example 10], in that order: 6.76 nM and 100 nM.

In the case of `CC(C)(C)C(=O)CN1C(=O)N(CC(=O)Nc2cccc(SCC(=O)O)c2)C(=O)N(C2CCCCCC2)c2ccccc21` [Example 11, (3-{2-[1-Cycloheptyl-5-(3,3-dimethyl-2-oxo-butyl)-2,4-dioxo-1,2,4,5-tetrahydro-1,3,5-benzotriazepin-3-yl]-acetylamino}-phenylsulfanyl)-acetic acid], the Kb on gastrin (CCK2) receptor was 4.47 nM. For the same compound, affinity at human CCK1-receptor was put at a Ki of 251 nM. In the case of `CC(C)(C)C(=O)CN1C(=O)N(CC(=O)Nc2cccc(-c3nc(=O)o[nH]3)c2)C(=O)N(C2CCCCCC2)c2ccccc21` [Example 12, 2-[1-Cycloheptyl-5-(3,3-dimethyl-2-oxo-butyl)-2,4-dioxo-1,2,4,5-tetrahydro-1,3,5-benzotriazepin-3-yl]-N-[3-(5-oxo-2,5-dihydro-[1,2,4]-oxadiazol-3-yl)-phenyl]-acetamide], at gastrin (CCK2) receptor, the Kb is 3.24 nM. Moreover, at human CCK1-receptor, the inhibition constant (Ki) is 126 nM. For `CNc1cccc(NC(=O)CN2C(=O)N(CC(=O)C(C)(C)C)c3ccccc3N(C3CCCCC3)C2=O)c1` [Example 13, 2-[1-Cyclohexyl-5-(3,3-dimethyl-2-oxo-butyl)-2,4-dioxo-1,2,4,5-tetrahydro-1,3,5-benzotriazepin-3-yl]-N-(3-methylamino-phenyl)-acetamide], in that order: 19.5 nM and 2510 nM.

Turning to `CC(C)(C)C(=O)CN1C(=O)N(CC(=O)Nc2cccc(CCC(=O)O)c2)C(=O)N(C2CCCCC2)c2ccccc21` [Example 14, 3-(3-{2-[1-Cyclohexyl-5-(3,3-dimethyl-2-oxo-butyl)-2,4-dioxo-1,2,4,5-tetrahydro-1,3,5-benzotriazepin-3-yl]-acetylamino}-phenyl)-propionic acid], the Kb on gastrin (CCK2) receptor is 26.3 nM. At human CCK1-receptor, the Ki was 2510 nM.

For `Cc1nc(-c2cccc(NC(=O)CN3C(=O)N(CC(=O)C(C)(C)C)c4ccccc4N(C4CCCCC4)C3=O)c2)cs1` [Example 15, 2-[1-Cyclohexyl-5-(3,3-dimethyl-2-oxo-butyl)-2,4-dioxo-1,2,4,5-tetrahydro-1,3,5-benzotriazepin-3-yl]-N-[3-(2-methyl-thiazol-4-yl)-phenyl]-acetamide], the inhibition constant (Ki) on human CCK1-receptor is 1580 nM. On the same count and under the same terms, in the case of `CN(c1cccc(NC(=O)CN2C(=O)N(CC(=O)C(C)(C)C)c3ccccc3N(C3CCCCC3)C2=O)c1)c1nn[nH]n1` [Example 16, 2-[1-Cyclohexyl-5-(3,3-dimethyl-2-oxo-butyl)-2,4-dioxo-1,2,4,5-tetrahydro-1,3,5-benzotriazepin-3-yl]-N-{3-[methyl-(2H-tetrazol-5-yl)-amino]-phenyl}-acetamide] it was 2000 nM. Consider `CC(C)(C)C(=O)CN1C(=O)N(CCCC(=O)Nc2cccc(-c3nc(=O)o[nH]3)c2)C(=O)N(C2CCCCC2)c2ccccc21` [Example 19, 4-[1-Cyclohexyl-5-(3,3-dimethyl-2-oxo-butyl)-2,4-dioxo-1,2,4,5-tetrahydro-1,3,5-benzotriazepin-3-yl]-N-[3-(5-oxo-2,5-dihydro-[1,2,4]oxadiazol-3-yl)-phenyl]-butyramide], for which the Kb on gastrin (CCK2) receptor is 87.1 nM.
